Assay results from article PMC7031696 (Cell chemical biology, 2019).
pIC50: −log10 of the molar value. In brackets after ≈: the same amount, converted by molar mass. Where two headings read alike, the source gives them in different places.

How the values were obtained:
[1] = system: Plasmodium falciparum 3D7-A10 parasites; assay: Stage specificity assay (8-h exposure of synchronized stages, IC50^8h); format: cell-based; details: for IC50 / pIC50: Plasmodium falciparum
[2] = system: 3D7-MR4 trophozoite parasite-infected RBCs; assay: Metabolomic profiling (hydrophilic metabolite changes, UHPLC-MS); format: cell-based, Plasmodium falciparum
[3] = 1.5 h, 500 μM, pH 7.4
[4] = physchem
[5] = system: asynchronous 3D7-A10 parasite cultures; assay: Standard 72-h exposure asexual blood stage susceptibility assay (IC50^72h); format: cell-based, Plasmodium falciparum; details: Plasmodium falciparum, 3D7, 72 h, read-out: Overall (72hr assay) Mean IC50 (IC50^72h)

**Q.** What does the source list for `Cc1cc(Nc2ccc(OCc3ccccc3)cc2)nc2cc(O)ccc12` [MMV007181]?
**A.** Ratio lowest IC50 8hr/IC50 72hr ([1]; 3D7-A10): 3.0; killing in stage specificity assay ([1]; 8-h exposures, survival curves): incomplete killing at all asexual blood stages; IC50 ([1]; 3D7, read-out: Early rings IC50 (IC50^8h), 8-h exposure 0–8 hr, bound given in μM): > 25 µM; pIC50 ([1]; 3D7, read-out: Early trophozoites Mean IC50 (IC50^8h), 8-h exposure 16–24 hr, 3D7-A10, survival at 60 h): 6.60; IC50 ([1]; 3D7, read-out: Late rings IC50 (IC50^8h), 8-h exposure 8–16 hr, bound given in μM): > 25 µM; pIC50 ([1]; 3D7, read-out: Late trophozoites Mean IC50 (IC50^8h), 8-h exposure 24–32 hr, 3D7-A10, survival at 60 h): 6.56; pIC50 ([1]; 3D7, read-out: Schizonts Mean IC50 (IC50^8h), 8-h exposure 32–40 hr, 3D7-A10, survival at 60 h): 6.24; Stage of peak activity (Figure 6) ([1]; period when the parasite was most susceptible (lowest IC50^8h)): trophozoites; Peak Activity (Table S1) ([1]; stage(s) with the lowest IC50^8h): Trophs; peptide levels (hemoglobin catabolism signature) ([2]; 10 × IC50^72h, 2.5 hr, trophozoites): decreased peptide levels; Log2(fold changes) 3-phosphoglycerate ([2]; metabolite 3-phosphoglycerate, log2 fold change): -0.1714; Log2(fold changes) 4-Pyridoxic acid ([2]; metabolite 4-Pyridoxic acid, log2 fold change): -0.2247; Log2(fold changes) 4-aminobutyrate ([2]; metabolite 4-aminobutyrate, log2 fold change): -0.0986; Log2(fold changes) 4-phosphopantetheine ([2]; metabolite 4-phosphopantetheine, log2 fold change): 0.6961; Log2(fold changes) 4-phosphopantothenate ([2]; metabolite 4-phosphopantothenate, log2 fold change): -0.6638; Log2(fold changes) 5-aminopentanoic acid ([2]; metabolite 5-aminopentanoic acid, log2 fold change): -0.2294; Log2(fold changes) 5-methyl-THF ([2]; metabolite 5-methyl-THF, log2 fold change): 0.0000; Log2(fold changes) 5-phosphoribosyl-1-pyrophosphate ([2]; metabolite 5-phosphoribosyl-1-pyrophosphate, log2 fold change): 0.0000; Log2(fold changes) 6-phospho-D-gluconate ([2]; metabolite 6-phospho-D-gluconate, log2 fold change): -0.1453; Log2(fold change) HVDD ([2]; metabolite HVDD): -4.4739; Log2(fold change) Hydroxyisocaproic acid ([2]; metabolite Hydroxyisocaproic acid): 0.0000; Log2(fold change) IDP ([2]; metabolite IDP): -0.0045; Log2(fold change) IMP ([2]; metabolite IMP): -0.1201; Log2(fold change) Inositol ([2]; metabolite Inositol): 0.0000; Log2(fold change) Isopentyl-PP ([2]; metabolite Isopentyl-PP): -0.4346; Log2(fold change) L-arginino-succinate ([2]; metabolite L-arginino-succinate): -0.6665; Log2(fold change) LD ([2]; metabolite LD): -0.1484; Log2(fold change) Myristoyl/tetradecanoyl-CoA ([2]; metabolite Myristoyl/tetradecanoyl-CoA): 0.0000; Log2(fold change) N-Acetyl-L-alanine ([2]; metabolite N-Acetyl-L-alanine): -0.3632; Log2(fold change) N-acetyl-L-ornithine ([2]; metabolite N-acetyl-L-ornithine): -2.0310; Log2(fold change) N-acetyl-glucosamine-1/6-phosphate ([2]; metabolite N-acetyl-glucosamine-1/6-phosphate): -0.0060; Log2(fold change) N-acetyl-glutamate ([2]; metabolite N-acetyl-glutamate): 0.1987; Log2(fold change) N-acetyl-glutamine ([2]; metabolite N-acetyl-glutamine): 0.1663; Log2(fold change) N-carbamoyl-L-aspartate ([2]; metabolite N-carbamoyl-L-aspartate): -0.1286; Log2(fold change) NAD+ ([2]; metabolite NAD+): -0.1335; Log2(fold change) NADH ([2]; metabolite NADH): 2.9716; Log2(fold change) NADP+ ([2]; metabolite NADP+): -0.2177; Log2(fold change) NADPH ([2]; metabolite NADPH): 2.7260; Log2(fold change) O-acetyl-L-serine ([2]; metabolite O-acetyl-L-serine): -0.0650; Log2(fold change) Octoluse 8/1P ([2]; metabolite Octoluse 8/1P): -0.2583; Log2(fold change) Octoluse Bisphosphate ([2]; metabolite Octoluse Bisphosphate): -0.7020; Log2(fold change) PD ([2]; metabolite PD): -3.3017; Log2(fold change) PE ([2]; metabolite PE): -2.9801; Log2(fold change) PEE ([2]; metabolite PEE): -2.9268; Log2(fold change) PEEK ([2]; metabolite PEEK): -4.7351; Log2(fold change) PVNF ([2]; metabolite PVNF): -4.5493; Log2(fold change) Pyroglutamic acid ([2]; metabolite Pyroglutamic acid): 0.2482; Log2(fold change) Pyrophosphate ([2]; metabolite Pyrophosphate): 0.0000; Log2(fold change) Ribose-5-phosphate ([2]; metabolite Ribose-5-phosphate): -0.4059; Log2(fold change) S-adenosyl-L-homocysteine ([2]; metabolite S-adenosyl-L-homocysteine): -0.1192; Log2(fold change) S-adenosyl-L-methioninamine ([2]; metabolite S-adenosyl-L-methioninamine): -3.2130; Log2(fold change) S-adenosyl-L-methionine ([2]; metabolite S-adenosyl-L-methionine): -0.1206; Log2(fold change) S-methyl-5'-thioadenosine ([2]; metabolite S-methyl-5'-thioadenosine): 0.4702; Log2(fold change) SD ([2]; metabolite SD): -0.6167; Log2(fold change) SDL ([2]; metabolite SDL): 0.0000; Log2(fold change) SID ([2]; metabolite SID): -0.9911; Log2(fold change) Sedoheptulose bisphosphate ([2]; metabolite Sedoheptulose bisphosphate): -0.4907; Log2(fold change) Thiamine pyrophosphate ([2]; metabolite Thiamine pyrophosphate): -0.0717; Log2(fold changes) UDP-D-glucose ([2]; metabolite UDP-D-glucose, log2 fold change): 0.0982; Log2(fold changes) UDP-D-glucuronate ([2]; metabolite UDP-D-glucuronate, log2 fold change): -0.0548; Log2(fold changes) UDP-N-acetyl-glucosamine ([2]; metabolite UDP-N-acetyl-glucosamine, log2 fold change): -0.0365; Log2(fold changes) UDP ([2]; metabolite UDP, log2 fold change): -0.2952; Log2(fold changes) UMP ([2]; metabolite UMP, log2 fold change): -0.1123; Log2(fold changes) UTP ([2]; metabolite UTP, log2 fold change): -0.0747; Log2(fold change) hydroxyphenylpyruvate ([2]; metabolite hydroxyphenylpyruvate): 0.0000; Log2(fold change) hydroxyproline/Aminolevulinate ([2]; metabolite hydroxyproline/Aminolevulinate): -0.1078; Log2(fold change) hypoxanthine ([2]; metabolite hypoxanthine): 0.1087; Log2(fold change) indole ([2]; metabolite indole): -0.0870; Log2(fold change) inosine ([2]; metabolite inosine): -0.1121; Log2(fold change) isoleucine ([2]; metabolite isoleucine): 0.0000; Log2(fold change) lactate ([2]; metabolite lactate): -0.3282; Log2(fold change) leucine ([2]; metabolite leucine): -0.3120; Log2(fold change) lysine ([2]; metabolite lysine): -2.3197; Log2(fold change) malate ([2]; metabolite malate): -0.7445; Log2(fold change) maleic acid ([2]; metabolite maleic acid): -0.7914; Log2(fold change) methionine ([2]; metabolite methionine): 0.1152; Log2(fold change) myo-inositol ([2]; metabolite myo-inositol): -0.3555; Log2(fold change) nicotinamide mononucleotide ([2]; metabolite nicotinamide mononucleotide): -0.2883; Log2(fold change) nicotinate ([2]; metabolite nicotinate): 0.1126; Log2(fold change) ornithine ([2]; metabolite ornithine): -0.1929; Log2(fold change) orotate ([2]; metabolite orotate): -0.4250; Log2(fold change) orotidine-5'-phosphate ([2]; metabolite orotidine-5'-phosphate): -1.5378; Log2(fold change) oxaloacetate ([2]; metabolite oxaloacetate): -0.5706; Log2(fold change) p-aminobenzoate ([2]; metabolite p-aminobenzoate): 0.0000; Log2(fold change) p-hydroxybenzoate ([2]; metabolite p-hydroxybenzoate): 0.0981; Log2(fold change) pantothenate ([2]; metabolite pantothenate): 0.1598; Log2(fold change) phenylalanine ([2]; metabolite phenylalanine): -0.4038; Log2(fold change) phenylpyruvate ([2]; metabolite phenylpyruvate): 0.0000; Log2(fold change) phosphoenolpyruvate ([2]; metabolite phosphoenolpyruvate): 0.0294; Log2(fold change) prephenate ([2]; metabolite prephenate): -0.1912; Log2(fold change) proline ([2]; metabolite proline): -0.4365; Log2(fold change) pyridoxine ([2]; metabolite pyridoxine): -0.1437; Log2(fold change) pyruvate ([2]; metabolite pyruvate): -0.7096; Log2(fold change) riboflavin ([2]; metabolite riboflavin): 0.3011; Log2(fold change) ribose ([2]; metabolite ribose): -0.0087; Log2(fold change) ribose-phosphate ([2]; metabolite ribose-phosphate): -0.7988; Log2(fold change) ribulose-5-phosphate ([2]; metabolite ribulose-5-phosphate): -0.4319; Log2(fold change) serine ([2]; metabolite serine): -0.2012; Log2(fold change) sn-glycerol-3-phosphate ([2]; metabolite sn-glycerol-3-phosphate): 0.0673; Log2(fold change) succinate/Methylmalonic acid ([2]; metabolite succinate/Methylmalonic acid): -0.1908; Log2(fold change) succinyl-CoA/methylmalonyl-CoA ([2]; metabolite succinyl-CoA/methylmalonyl-CoA): 0.0000; Log2(fold change) taurine ([2]; metabolite taurine): 0.0434; Log2(fold change) thiamine ([2]; metabolite thiamine): -0.2929; Log2(fold change) threonine/homoserine ([2]; metabolite threonine/homoserine): -0.5619; Log2(fold change) thymidine ([2]; metabolite thymidine): 0.0000; Log2(fold changes) thymine ([2]; metabolite thymine, log2 fold change): 0.0000; Log2(fold changes) trehalose-6-Phosphate ([2]; metabolite trehalose-6-Phosphate, log2 fold change): 0.0000; Log2(fold changes) tryptophan ([2]; metabolite tryptophan, log2 fold change): -0.4056; Log2(fold changes) tyrosine ([2]; metabolite tyrosine, log2 fold change): -0.2656; Log2(fold changes) uridine ([2]; metabolite uridine, log2 fold change): 0.0000; Ratio fil./std. (absorbance filtrate/standard) [3]: 0.69; solubility at 1.5 h ([4]; pH 7.4): > 100 µM; solubility at 1.5 h ([4]; pH 7.4, aqueous buffer, kinetic from dmso stock): 100 to 500 µM (≈ 35.6 to 178 µg/mL); pIC50 [5]: 7.07
